Measurements as given in the NIST ThermoML archive (doi:10.1021/je0501944).
± gives the expanded uncertainty stated by the source.

Key:
[1] = 298.15 K, 101.33 kPa, Liquid; for viscosity: Capillary tube (Ostwald / Ubbelohde) method
[2] = xn = mol fraction of the nth substance listed; settings: 298.15 K, 101 kPa, Liquid; for viscosity: Capillary tube (Ostwald / Ubbelohde) method

C1CCCCC1 [cyclohexane]
mass density [1]: 773.93 ± 0.37 kg/m3
viscosity [1]: 0.894 ± 0.007 mPa·s

C1CCCCC1 [cyclohexane] + Cc1ccccc1
viscosity ([2]; x2 = 0.0407): 0.8158 ± 0.0073 mPa·s
viscosity ([2]; x2 = 0.2018): 0.7133 ± 0.0066 mPa·s
viscosity ([2]; x2 = 0.2798): 0.6687 ± 0.0063 mPa·s
viscosity ([2]; x2 = 0.3613): 0.6305 ± 0.006 mPa·s
viscosity ([2]; x2 = 0.4416): 0.6081 ± 0.0058 mPa·s
viscosity ([2]; x2 = 0.6003): 0.566 ± 0.0056 mPa·s
viscosity ([2]; x2 = 0.6784): 0.5534 ± 0.0055 mPa·s
viscosity ([2]; x2 = 0.7615): 0.5429 ± 0.0055 mPa·s
viscosity ([2]; x2 = 0.8396): 0.5395 ± 0.0055 mPa·s
viscosity ([2]; x2 = 0.9202): 0.5393 ± 0.0055 mPa·s
mass density ([2]; x2 = 0.0407): 776.48 ± 0.37 kg/m3
mass density ([2]; x2 = 0.2018): 788.44 ± 0.38 kg/m3
mass density ([2]; x2 = 0.2798): 794.63 ± 0.39 kg/m3
mass density ([2]; x2 = 0.3613): 801.33 ± 0.4 kg/m3
mass density ([2]; x2 = 0.4416): 808.17 ± 0.41 kg/m3
mass density ([2]; x2 = 0.6003): 822.4 ± 0.42 kg/m3
mass density ([2]; x2 = 0.6784): 829.75 ± 0.44 kg/m3
mass density ([2]; x2 = 0.7615): 837.82 ± 0.45 kg/m3
mass density ([2]; x2 = 0.8396): 845.63 ± 0.46 kg/m3
mass density ([2]; x2 = 0.9202): 853.94 ± 0.47 kg/m3

CCCCC [pentane]
mass density [1]: 621.32 ± 0.99 kg/m3
viscosity [1]: 0.219 ± 0.005 mPa·s

CCCCC [pentane] + C1CCCCC1
viscosity ([2]; x2 = 0.0437): 0.2065 ± 0.0025 mPa·s
viscosity ([2]; x2 = 0.2145): 0.2555 ± 0.0029 mPa·s
viscosity ([2]; x2 = 0.2955): 0.2828 ± 0.0031 mPa·s
viscosity ([2]; x2 = 0.3753): 0.3128 ± 0.0034 mPa·s
viscosity ([2]; x2 = 0.4595): 0.3503 ± 0.0037 mPa·s
viscosity ([2]; x2 = 0.6125): 0.4425 ± 0.0046 mPa·s
viscosity ([2]; x2 = 0.7048): 0.5146 ± 0.0052 mPa·s
viscosity ([2]; x2 = 0.7791): 0.5847 ± 0.0059 mPa·s
viscosity ([2]; x2 = 0.8514): 0.6591 ± 0.0066 mPa·s
viscosity ([2]; x2 = 0.9254): 0.7641 ± 0.0076 mPa·s
mass density ([2]; x2 = 0.0437): 627.56 ± 0.49 kg/m3
mass density ([2]; x2 = 0.2145): 653.09 ± 0.48 kg/m3
mass density ([2]; x2 = 0.2955): 665.44 ± 0.47 kg/m3
mass density ([2]; x2 = 0.3753): 677.59 ± 0.47 kg/m3
mass density ([2]; x2 = 0.4595): 690.43 ± 0.47 kg/m3
mass density ([2]; x2 = 0.6125): 713.75 ± 0.47 kg/m3
mass density ([2]; x2 = 0.7048): 727.81 ± 0.48 kg/m3
mass density ([2]; x2 = 0.7791): 739.14 ± 0.48 kg/m3
mass density ([2]; x2 = 0.8514): 750.15 ± 0.49 kg/m3
mass density ([2]; x2 = 0.9254): 761.85 ± 0.49 kg/m3

CCCCC [pentane] + Cc1ccccc1
viscosity ([2]; x2 = 0.0415): 0.2029 ± 0.0026 mPa·s
viscosity ([2]; x2 = 0.2011): 0.2231 ± 0.0028 mPa·s
viscosity ([2]; x2 = 0.2799): 0.2386 ± 0.0029 mPa·s
viscosity ([2]; x2 = 0.3647): 0.2592 ± 0.0031 mPa·s
viscosity ([2]; x2 = 0.4341): 0.2786 ± 0.0033 mPa·s
viscosity ([2]; x2 = 0.6011): 0.3367 ± 0.0038 mPa·s
viscosity ([2]; x2 = 0.6821): 0.3688 ± 0.0041 mPa·s
viscosity ([2]; x2 = 0.7502): 0.3999 ± 0.0044 mPa·s
viscosity ([2]; x2 = 0.8213): 0.4371 ± 0.0047 mPa·s
viscosity ([2]; x2 = 0.9137): 0.4891 ± 0.0051 mPa·s
mass density ([2]; x2 = 0.0415): 630.69 ± 0.55 kg/m3
mass density ([2]; x2 = 0.2011): 668.27 ± 0.54 kg/m3
mass density ([2]; x2 = 0.2799): 687.21 ± 0.53 kg/m3
mass density ([2]; x2 = 0.3647): 707.61 ± 0.53 kg/m3
mass density ([2]; x2 = 0.4341): 724.3 ± 0.52 kg/m3
mass density ([2]; x2 = 0.6011): 764.45 ± 0.51 kg/m3
mass density ([2]; x2 = 0.6821): 783.95 ± 0.5 kg/m3
mass density ([2]; x2 = 0.7502): 800.32 ± 0.5 kg/m3
mass density ([2]; x2 = 0.8213): 817.43 ± 0.49 kg/m3
mass density ([2]; x2 = 0.9137): 840.19 ± 0.49 kg/m3

Cc1ccccc1 [toluene]
mass density [1]: 862.19 ± 0.62 kg/m3
viscosity [1]: 0.552 ± 0.006 mPa·s
